The target of test [1] is T1, Tyrosine-protein phosphatase non-receptor type 11 (Homo sapiens, UniProt Q06124).
T1 sequence (Q06124 whole entry): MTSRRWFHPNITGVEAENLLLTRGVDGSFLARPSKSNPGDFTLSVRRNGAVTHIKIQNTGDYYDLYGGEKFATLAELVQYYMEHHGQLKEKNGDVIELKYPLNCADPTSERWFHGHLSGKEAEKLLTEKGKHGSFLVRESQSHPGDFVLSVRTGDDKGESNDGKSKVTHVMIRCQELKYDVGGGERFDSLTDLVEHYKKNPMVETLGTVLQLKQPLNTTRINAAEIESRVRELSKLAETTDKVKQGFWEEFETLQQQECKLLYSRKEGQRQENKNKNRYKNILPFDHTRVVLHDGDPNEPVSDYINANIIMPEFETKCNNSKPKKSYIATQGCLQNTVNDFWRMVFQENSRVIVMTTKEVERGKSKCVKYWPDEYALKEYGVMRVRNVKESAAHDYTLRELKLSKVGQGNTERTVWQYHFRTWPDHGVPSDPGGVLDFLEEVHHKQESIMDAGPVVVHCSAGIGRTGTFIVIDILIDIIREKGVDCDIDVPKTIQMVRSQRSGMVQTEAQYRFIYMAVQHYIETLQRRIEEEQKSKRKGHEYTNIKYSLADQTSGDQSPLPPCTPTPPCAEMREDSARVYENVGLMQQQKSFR
The test can be described thus: Inhibition of SHP2.

Test [2] concerns the target Receptor-type tyrosine-protein phosphatase F (Homo sapiens, UniProt P10586). The experiment in a line: Inhibition of LAR.
The target of test [3] is T2, Low molecular weight phosphotyrosine protein phosphatase (Homo sapiens, UniProt P24666).
T2 sequence (P24666 whole entry): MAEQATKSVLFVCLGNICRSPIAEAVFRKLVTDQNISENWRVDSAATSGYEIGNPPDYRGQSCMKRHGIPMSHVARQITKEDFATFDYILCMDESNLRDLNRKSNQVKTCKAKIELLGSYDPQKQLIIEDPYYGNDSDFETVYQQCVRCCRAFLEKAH
The test can be described thus: Inhibition of HCPTPA.

The target of test [4] is Receptor-type tyrosine-protein phosphatase beta (Homo sapiens, UniProt P23467). The experiment in a line: Inhibition of HPTP beta.
Chain of Receptor-type tyrosine-protein phosphatase beta (P23467 whole entry): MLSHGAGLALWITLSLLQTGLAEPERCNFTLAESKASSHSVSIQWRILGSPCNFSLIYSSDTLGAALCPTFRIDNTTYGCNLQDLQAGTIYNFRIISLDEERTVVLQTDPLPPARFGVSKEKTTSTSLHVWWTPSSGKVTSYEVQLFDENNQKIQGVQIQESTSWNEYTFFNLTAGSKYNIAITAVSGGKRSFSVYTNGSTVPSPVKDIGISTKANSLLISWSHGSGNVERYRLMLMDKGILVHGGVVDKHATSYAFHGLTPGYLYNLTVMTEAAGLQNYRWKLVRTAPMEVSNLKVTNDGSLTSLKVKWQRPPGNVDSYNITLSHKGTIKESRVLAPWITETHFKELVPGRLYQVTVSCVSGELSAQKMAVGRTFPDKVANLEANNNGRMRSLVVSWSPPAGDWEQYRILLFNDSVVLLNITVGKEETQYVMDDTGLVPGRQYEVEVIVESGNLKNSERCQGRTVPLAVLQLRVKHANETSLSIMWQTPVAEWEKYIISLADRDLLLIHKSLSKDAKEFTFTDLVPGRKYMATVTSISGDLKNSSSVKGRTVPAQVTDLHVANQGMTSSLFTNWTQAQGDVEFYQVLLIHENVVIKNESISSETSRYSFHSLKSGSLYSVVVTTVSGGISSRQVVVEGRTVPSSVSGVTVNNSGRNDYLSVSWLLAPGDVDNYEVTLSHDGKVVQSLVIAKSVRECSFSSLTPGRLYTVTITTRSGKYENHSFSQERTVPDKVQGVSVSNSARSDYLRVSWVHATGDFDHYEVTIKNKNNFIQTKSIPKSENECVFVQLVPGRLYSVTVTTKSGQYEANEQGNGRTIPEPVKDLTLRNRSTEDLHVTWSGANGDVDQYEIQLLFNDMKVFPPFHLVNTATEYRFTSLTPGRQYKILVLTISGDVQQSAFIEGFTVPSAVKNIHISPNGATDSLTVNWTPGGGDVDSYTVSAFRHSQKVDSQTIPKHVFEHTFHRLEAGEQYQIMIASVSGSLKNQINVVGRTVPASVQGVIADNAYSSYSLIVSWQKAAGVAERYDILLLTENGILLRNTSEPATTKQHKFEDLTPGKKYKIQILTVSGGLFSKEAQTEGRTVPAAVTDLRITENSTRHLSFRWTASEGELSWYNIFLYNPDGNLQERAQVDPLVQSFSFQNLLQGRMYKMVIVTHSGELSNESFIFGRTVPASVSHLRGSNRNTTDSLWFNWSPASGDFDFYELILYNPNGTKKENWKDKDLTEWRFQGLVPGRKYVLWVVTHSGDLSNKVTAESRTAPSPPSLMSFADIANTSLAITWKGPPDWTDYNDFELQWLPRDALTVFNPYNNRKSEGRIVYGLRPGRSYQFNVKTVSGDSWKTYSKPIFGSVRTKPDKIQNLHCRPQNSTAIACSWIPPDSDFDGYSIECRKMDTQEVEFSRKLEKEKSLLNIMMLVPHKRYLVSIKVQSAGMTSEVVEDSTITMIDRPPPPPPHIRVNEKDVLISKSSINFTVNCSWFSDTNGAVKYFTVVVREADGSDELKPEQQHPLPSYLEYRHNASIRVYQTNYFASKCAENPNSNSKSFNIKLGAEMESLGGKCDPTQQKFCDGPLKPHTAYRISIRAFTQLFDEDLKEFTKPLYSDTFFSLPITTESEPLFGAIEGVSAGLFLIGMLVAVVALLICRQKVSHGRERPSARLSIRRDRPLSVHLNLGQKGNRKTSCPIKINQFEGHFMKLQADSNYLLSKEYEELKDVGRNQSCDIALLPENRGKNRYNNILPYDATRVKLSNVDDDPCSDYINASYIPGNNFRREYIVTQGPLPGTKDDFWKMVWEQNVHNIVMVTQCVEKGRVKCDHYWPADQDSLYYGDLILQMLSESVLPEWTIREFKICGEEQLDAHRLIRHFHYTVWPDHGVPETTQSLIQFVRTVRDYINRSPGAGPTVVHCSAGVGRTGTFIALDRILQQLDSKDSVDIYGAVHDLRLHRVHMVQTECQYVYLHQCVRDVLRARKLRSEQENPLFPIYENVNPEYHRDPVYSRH
For test [5], the target named is T3, Tyrosine-protein phosphatase non-receptor type 2 (Homo sapiens, UniProt P17706).
T3 sequence (P17706 whole entry): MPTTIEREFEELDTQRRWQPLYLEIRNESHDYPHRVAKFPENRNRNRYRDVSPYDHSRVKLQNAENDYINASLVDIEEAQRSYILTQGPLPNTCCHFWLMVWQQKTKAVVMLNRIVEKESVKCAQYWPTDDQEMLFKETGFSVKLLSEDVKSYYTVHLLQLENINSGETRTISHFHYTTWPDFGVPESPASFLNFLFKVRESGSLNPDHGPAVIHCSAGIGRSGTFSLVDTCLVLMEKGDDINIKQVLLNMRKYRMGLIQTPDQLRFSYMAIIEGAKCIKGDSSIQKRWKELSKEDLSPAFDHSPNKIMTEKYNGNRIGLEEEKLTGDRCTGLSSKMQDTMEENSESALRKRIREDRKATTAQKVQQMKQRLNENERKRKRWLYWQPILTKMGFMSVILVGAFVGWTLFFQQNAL
The experiment in a line: Inhibition of TC-PTP38.

The target of test [6] is Receptor-type tyrosine-protein phosphatase epsilon (Homo sapiens, UniProt P23469). The experiment in a line: Inhibition of HPTP epsilon.
In test [7] the target is Tyrosine-protein phosphatase non-receptor type 6 (Homo sapiens, UniProt P29350). The experiment in a line: Inhibition of SHP1.
Chain of Tyrosine-protein phosphatase non-receptor type 6 (P29350 whole entry): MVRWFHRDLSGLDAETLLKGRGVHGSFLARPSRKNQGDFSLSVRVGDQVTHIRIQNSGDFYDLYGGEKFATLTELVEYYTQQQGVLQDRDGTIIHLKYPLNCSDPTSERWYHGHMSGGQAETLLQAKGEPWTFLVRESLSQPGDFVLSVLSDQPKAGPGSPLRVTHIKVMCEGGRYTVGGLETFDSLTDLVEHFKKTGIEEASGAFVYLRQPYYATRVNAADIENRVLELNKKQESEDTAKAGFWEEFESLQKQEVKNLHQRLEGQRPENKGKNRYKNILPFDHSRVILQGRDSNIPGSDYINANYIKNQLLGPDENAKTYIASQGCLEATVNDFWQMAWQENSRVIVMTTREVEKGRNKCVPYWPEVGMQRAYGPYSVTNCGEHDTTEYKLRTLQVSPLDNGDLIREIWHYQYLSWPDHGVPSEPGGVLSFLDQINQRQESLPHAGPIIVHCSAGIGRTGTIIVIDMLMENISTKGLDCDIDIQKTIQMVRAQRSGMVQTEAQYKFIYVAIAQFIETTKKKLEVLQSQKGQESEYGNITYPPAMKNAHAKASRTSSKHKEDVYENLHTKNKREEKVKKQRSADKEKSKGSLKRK
Test [8] concerns the target T4, Receptor-type tyrosine-protein phosphatase eta (Homo sapiens, UniProt Q12913).
T4 sequence (Q12913 whole entry): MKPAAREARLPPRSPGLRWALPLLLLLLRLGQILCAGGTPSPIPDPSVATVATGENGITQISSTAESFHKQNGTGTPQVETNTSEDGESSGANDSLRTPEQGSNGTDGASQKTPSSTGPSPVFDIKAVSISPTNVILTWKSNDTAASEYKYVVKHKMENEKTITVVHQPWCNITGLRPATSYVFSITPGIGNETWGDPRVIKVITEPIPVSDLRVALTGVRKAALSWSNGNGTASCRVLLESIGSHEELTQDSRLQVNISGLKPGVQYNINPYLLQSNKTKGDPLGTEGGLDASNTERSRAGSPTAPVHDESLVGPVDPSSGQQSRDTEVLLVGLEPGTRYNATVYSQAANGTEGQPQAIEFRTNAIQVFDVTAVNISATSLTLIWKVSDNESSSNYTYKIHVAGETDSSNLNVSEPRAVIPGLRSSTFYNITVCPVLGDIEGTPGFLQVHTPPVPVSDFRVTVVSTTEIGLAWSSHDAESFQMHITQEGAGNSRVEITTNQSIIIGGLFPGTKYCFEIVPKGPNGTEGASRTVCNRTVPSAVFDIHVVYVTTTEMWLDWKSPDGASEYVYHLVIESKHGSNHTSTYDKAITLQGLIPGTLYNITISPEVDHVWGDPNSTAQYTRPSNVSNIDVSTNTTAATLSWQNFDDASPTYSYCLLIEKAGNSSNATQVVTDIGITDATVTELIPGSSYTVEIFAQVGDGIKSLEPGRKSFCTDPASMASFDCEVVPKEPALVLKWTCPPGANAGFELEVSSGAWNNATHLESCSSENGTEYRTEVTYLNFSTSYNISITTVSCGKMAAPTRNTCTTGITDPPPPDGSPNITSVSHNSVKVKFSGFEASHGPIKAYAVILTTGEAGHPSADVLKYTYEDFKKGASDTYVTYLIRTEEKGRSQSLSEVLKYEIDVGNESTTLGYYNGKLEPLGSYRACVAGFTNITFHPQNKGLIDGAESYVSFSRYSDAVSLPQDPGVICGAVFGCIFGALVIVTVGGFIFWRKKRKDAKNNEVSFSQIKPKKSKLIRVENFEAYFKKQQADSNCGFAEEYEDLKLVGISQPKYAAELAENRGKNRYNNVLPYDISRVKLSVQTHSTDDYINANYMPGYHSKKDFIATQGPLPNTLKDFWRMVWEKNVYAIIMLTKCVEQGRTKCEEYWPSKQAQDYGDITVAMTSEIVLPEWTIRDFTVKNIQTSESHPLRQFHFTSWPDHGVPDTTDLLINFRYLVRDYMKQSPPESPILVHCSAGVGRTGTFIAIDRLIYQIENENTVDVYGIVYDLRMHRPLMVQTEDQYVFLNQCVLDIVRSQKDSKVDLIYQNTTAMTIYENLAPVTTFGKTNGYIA
The test can be described thus: Inhibition of HPTP eta.

Chain of Receptor-type tyrosine-protein phosphatase F (P10586 whole entry): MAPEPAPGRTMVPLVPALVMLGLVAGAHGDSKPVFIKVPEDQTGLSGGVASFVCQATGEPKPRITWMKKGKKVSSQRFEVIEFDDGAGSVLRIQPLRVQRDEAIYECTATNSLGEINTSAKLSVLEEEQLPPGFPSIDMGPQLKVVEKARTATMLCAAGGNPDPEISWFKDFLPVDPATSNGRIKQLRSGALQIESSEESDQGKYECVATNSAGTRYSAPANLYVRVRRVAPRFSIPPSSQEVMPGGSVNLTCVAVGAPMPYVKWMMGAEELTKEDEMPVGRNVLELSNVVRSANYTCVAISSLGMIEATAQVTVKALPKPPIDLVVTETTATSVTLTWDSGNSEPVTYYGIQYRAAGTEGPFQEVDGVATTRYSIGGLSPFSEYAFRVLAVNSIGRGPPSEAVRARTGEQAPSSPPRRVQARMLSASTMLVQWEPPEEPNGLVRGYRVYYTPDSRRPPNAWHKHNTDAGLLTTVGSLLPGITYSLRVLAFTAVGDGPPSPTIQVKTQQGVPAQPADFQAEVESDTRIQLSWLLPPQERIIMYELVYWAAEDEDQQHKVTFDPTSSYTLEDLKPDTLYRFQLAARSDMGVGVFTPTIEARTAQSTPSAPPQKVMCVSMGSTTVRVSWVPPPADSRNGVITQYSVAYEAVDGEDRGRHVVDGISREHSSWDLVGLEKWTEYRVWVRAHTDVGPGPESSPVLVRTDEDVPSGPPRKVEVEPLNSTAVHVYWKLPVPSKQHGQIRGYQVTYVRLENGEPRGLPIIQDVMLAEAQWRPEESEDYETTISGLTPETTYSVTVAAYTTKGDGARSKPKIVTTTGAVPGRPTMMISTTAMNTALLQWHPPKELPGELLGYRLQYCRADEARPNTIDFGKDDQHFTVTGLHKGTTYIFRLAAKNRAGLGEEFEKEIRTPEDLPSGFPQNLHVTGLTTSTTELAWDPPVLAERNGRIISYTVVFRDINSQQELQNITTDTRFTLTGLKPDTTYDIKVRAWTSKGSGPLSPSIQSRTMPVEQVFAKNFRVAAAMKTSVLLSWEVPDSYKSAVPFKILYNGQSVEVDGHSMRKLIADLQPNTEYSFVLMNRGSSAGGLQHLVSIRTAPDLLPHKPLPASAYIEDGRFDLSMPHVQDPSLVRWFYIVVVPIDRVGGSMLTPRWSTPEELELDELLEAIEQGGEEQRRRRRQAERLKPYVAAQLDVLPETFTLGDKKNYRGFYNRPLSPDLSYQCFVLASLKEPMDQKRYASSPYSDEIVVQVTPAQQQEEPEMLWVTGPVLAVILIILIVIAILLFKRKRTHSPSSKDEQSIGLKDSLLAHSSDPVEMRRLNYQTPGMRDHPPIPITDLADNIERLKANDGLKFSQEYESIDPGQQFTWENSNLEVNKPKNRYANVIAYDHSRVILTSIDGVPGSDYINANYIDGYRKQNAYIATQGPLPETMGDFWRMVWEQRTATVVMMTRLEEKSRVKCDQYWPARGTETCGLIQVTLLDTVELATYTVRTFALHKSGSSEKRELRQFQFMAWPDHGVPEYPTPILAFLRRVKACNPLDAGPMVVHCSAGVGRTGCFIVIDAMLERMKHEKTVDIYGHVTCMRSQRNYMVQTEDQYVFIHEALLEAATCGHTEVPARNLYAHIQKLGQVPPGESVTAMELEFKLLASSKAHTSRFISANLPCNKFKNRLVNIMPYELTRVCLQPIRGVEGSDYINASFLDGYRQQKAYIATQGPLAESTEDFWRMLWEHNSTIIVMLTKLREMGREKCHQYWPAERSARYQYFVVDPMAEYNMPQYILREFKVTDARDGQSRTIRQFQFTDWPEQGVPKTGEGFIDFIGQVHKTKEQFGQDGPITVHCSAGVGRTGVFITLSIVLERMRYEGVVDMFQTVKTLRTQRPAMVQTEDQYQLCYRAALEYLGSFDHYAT

With `CNC(=O)[C@@H]1Cc2ccc(NS(=O)(=O)O)cc2CN1C(=O)CCc1cccc(NS(=O)(=O)O)c1`, the IC50 in test [1] is over 500 µM; in test [2], over 500 µM; in test [3], 3.1 µM; in test [4] it was 20.7 µM; in test [5], 9.9 µM; in test [6], over 500 µM. Further, the half-inhibitory concentration (IC50) in test [7] was found to be 203 µM; in test [8] it was 150 µM.

Values taken from ChEMBL document CHEMBL1139672, “1,2,3,4-Tetrahydroisoquinolinyl sulfamic acids as phosphatase PTP1B inhibitors” (Bioorg Med Chem Lett, 2006).
